Results reported in the supplement of paper PMC10307832.

Assays:
Assay in all cases: relative viability (nuclei count vs DMSO), 5 days (fraction); higher = more cells survive
[1] = compound: CCN1CCN(c2ccc(Nc3cc(N(C)C(=O)Nc4c(Cl)c(OC)cc(OC)c4Cl)ncn3)cc2)CC1 [BGJ398] + COc1cc2c(Oc3ccc(NC(=O)C4(C(=O)Nc5ccc(F)cc5)CC4)cc3F)ccnc2cc1OCCCN1CCOCC1 [Foretinib] (partner 0.25 µM)
Procedure, shortened: (§1)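 The day after seeding in 1536-well plates, lung cancer cell lines were treated by pin tool with a single drug, or with a fixed anchor-drug dose together with five library-drug doses (not always all listed) in √10 steps. After 5 days, a combined fix-and-stain solution (final 0.05% Triton X-100, 1% formaldehyde, 1 ug/ml Hoechst) was added. Nuclei counted on 4× images gave relative viability as treated counts over vehicle counts, reported as the median of duplicate plates.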

[2] = compound: CCN1CCN(c2ccc(Nc3cc(N(C)C(=O)Nc4c(Cl)c(OC)cc(OC)c4Cl)ncn3)cc2)CC1 [BGJ398] + C[C@]1(O)C[C@@H](c2nc(-c3ccc4ccc(-c5ccccc5)nc4c3)c3c(N)nccn32)C1 [Linsitinib] (partner 1 µM)
Procedure, shortened: as §1

[3] = compound: CCN1CCN(c2ccc(Nc3cc(N(C)C(=O)Nc4c(Cl)c(OC)cc(OC)c4Cl)ncn3)cc2)CC1 [BGJ398] + CC(C)C[C@H](NC(=O)[C@H](Cc1ccccc1)NC(=O)c1cnccn1)B(O)O [Bortezomib] (partner 0.002 µM)
Procedure, shortened: as §1

[4] = compound: C1=CC2=NC=CN=C2C=C1/C=C/3\C(=O)NC(=O)S3 + Cc1cc(Nc2cc(N3CCN(C)CC3)nc(Sc3ccc(NC(=O)C4CC4)cc3)n2)n[nH]1 [Tozasertib] (partner 0.1 µM)
Procedure, shortened: as §1

| Cell Line | relative viability ([1]; first compound 0.01 µM) | relative viability ([1]; first compound 0.03162 µM) | relative viability ([1]; first compound 0.1 µM) | relative viability ([1]; first compound 0.3162 µM) | relative viability ([1]; first compound 1 µM) | relative viability ([2]; first compound 0.01 µM) | relative viability ([2]; first compound 0.03162 µM) | relative viability ([2]; first compound 0.1 µM) | relative viability ([2]; first compound 0.3162 µM) | relative viability ([2]; first compound 1 µM) | relative viability ([3]; first compound 0.01 µM) | relative viability ([3]; first compound 0.03162 µM) | relative viability ([3]; first compound 0.1 µM) | relative viability ([3]; first compound 0.3162 µM) | relative viability ([3]; first compound 1 µM) | relative viability ([4]; first compound 0.02 µM) | relative viability ([4]; first compound 0.06325 µM) | relative viability ([4]; first compound 0.2 µM) | relative viability ([4]; first compound 0.6325 µM) | relative viability ([4]; first compound 2 µM) |
| --- | --- | --- | --- | --- | --- | --- | --- | --- | --- | --- | --- | --- | --- | --- | --- | --- | --- | --- | --- | --- |
| Calu-6 | 0.879 | 0.819 | 0.912 | 0.836 | 0.88 | 0.932 | 0.969 | 0.901 | 0.922 | 0.952 | 0.923 | 0.963 | 1.01 | 1.07 | 0.982 |  |  |  |  |  |
| ChaGo-K-1 | 0.899 | 0.991 | 0.914 | 1.01 | 0.907 |  |  |  |  |  | 1.12 | 0.928 | 0.957 | 0.896 | 0.604 | 0.243 | 0.215 | 0.248 | 0.232 | 0.239 |
| EBC-1 | 0.0959 | 0.0812 | 0.0909 | 0.109 | 0.108 | 0.875 | 0.968 | 0.941 | 0.877 | 0.703 | 0.616 | 0.614 | 0.589 | 0.53 | 0.526 |  |  |  |  |  |
| EKVX | 0.763 | 0.409 | 0.805 | 0.643 | 0.686 | 0.776 | 0.859 | 1.17 | 1.05 | 1.05 | 0.993 | 1.06 | 1.27 | 0.959 | 1.07 | 0.423 | 0.321 | 0.38 | 0.449 | 0.352 |
| EMC-BAC-2 | 1.12 | 1.02 | 0.98 | 1.05 | 0.992 | 0.815 | 0.785 | 0.842 | 0.825 | 0.872 | 1.05 | 1 | 1.14 | 1.08 | 1.01 | 0.276 | 0.253 | 0.368 | 0.243 | 0.297 |
| EPLC-272H | 0.794 | 0.534 | 0.84 | 0.724 | 0.74 | 1.16 | 1.16 | 1.2 | 1 | 1.22 | 0.96 | 0.816 | 0.957 | 0.841 | 0.861 | 0.263 | 0.253 | 0.254 | 0.259 | 0.175 |
| H3255 | 0.985 |  | 0.961 | 0.386 | 0.878 | 0.887 | 0.35 | 0.919 | 0.708 | 1.05 | 0.712 |  | 0.712 | 0.439 | 0.69 | 0.575 | 0.644 | 0.55 | 0.602 | 0.698 |
| HARA | 0.941 | 0.901 | 0.829 | 0.905 | 0.79 | 0.845 | 0.856 | 0.903 | 0.978 | 0.902 | 1.15 | 1.05 | 1.13 | 1.08 | 0.978 | 0.0982 | 0.133 | 0.128 | 0.104 | 0.11 |
| HCC-15 | 0.978 | 1.1 | 1.04 | 1.13 | 1.07 | 0.981 | 0.968 | 0.921 | 0.981 | 0.936 | 1.01 | 0.997 | 1.04 | 1.08 | 1.06 | 0.374 | 0.333 | 0.303 | 0.393 | 0.49 |
